Data set [1] concerns HIV-1 protease (Human immunodeficiency virus 1). Put plainly: Binding affinity against HIV protease at 30 uM concentration.
Data set [2] shares this test system. The experiment in a line: Inhibition against HIV protease at 1 uM.
Data set [3] shares this test system. Put plainly: Binding affinity against HIV protease.; Not determined due to low enzyme inhibition.
For data set [4] the test system is unchanged. Put plainly: Binding affinity against HIV protease at 30 uM.
Data set [5] in a line: Maximum plasma concentration for the compound in suspension form (formulation) was determined in rats at peroral dose of 5 mg/kg. Format: ADME, organism-based. More on the design: dose 5 mg/kg, route oral. As to conditions: rat, po.
A short description of data set [6]: Time taken for maximum plasma concentration for the compound in solution form (formulation) was determined in rats at peroral dose of 5 mg/kg. The format is ADME, organism-based. Set-up: dose 5 mg/kg, route oral. The note with it: rat, po.
The nature of data set [7]: Maximum plasma concentration for the compound in solution form (formulation) was determined in rats at peroral dose of 5 mg/kg. Format: ADME, organism-based. Set-up: dose 5 mg/kg, route oral. As to conditions: rat, po.
Data set [8] can be described thus: Time taken for maximum plasma concentration for the compound in suspension form (formulation) was determined in rats at peroral dose of 5 mg/kg. Format: ADME, organism-based. Set-up: dose 5 mg/kg, route oral. As to conditions: rat, po.
Data set [9] concerns HIV-1 protease (Human immunodeficiency virus 1). The experiment in a line: Binding affinity against HIV protease at 1 uM.

In general, inhibition refers to the percentage by which the read-out fell short of the control. Usually Cmax stands for the peak of the concentration-time curve. By Tmax is commonly meant the time at which the peak concentration occurs.

With `O=c1c(CCCc2ccccc2)c(O)oc2c1CCCCCC2`, the inhibition in data set [1] came to 38%.
With `O=c1c2c(oc(O)c1C(c1ccccc1)C1CC1)CCCCC2` (configuration not stated), in data set [2], the inhibition stood at 70%.
On to `O=c1c2c(oc(O)c1C(c1ccccc1)C1CC1)CCC2` (configuration not stated), for which, in data set [2], the inhibition turned out to be 40%. Besides, the Ki result in [3] was “Low inhibition”.
In turn, `O=c1c2c(oc(O)c1C(c1ccccc1)C1CC1)CCCC2` (configuration not stated) yielded an inhibition in [2] of 62%.
With `O=c1c2c(oc(O)c1C(c1ccccc1)C1CC1)CCCCCCCCCC2` (configuration not stated), the inhibition in data set [2] is less than 10%. The Ki entry in data set [3] is listed as “Low inhibition”.
`O=c1c(CCc2ccccc2)c(O)oc2c1CCCCCC2`: the inhibition in data set [4] is less than 10%.
Turning to `O=c1c2c(oc(O)c1C(c1ccccc1)C1CC1)CCCCCC2` (configuration not stated), the Cmax in data set [5] is 30.3 µM; in [7], 40.8 µM. Moreover, the Tmax came to 3.7 h in data set [6] and 6 h in data set [8]. The inhibition in data set [2] was found to be 95%.
Compound `O=c1c2c(oc(O)c1C(c1ccccc1)C1CC1)CCCCCCC2` (configuration not stated) displayed an inhibition in [2] of 94%.
Compound `O=c1c(Cc2ccccc2)c(O)oc2c1CCCCCC2` returned an inhibition in data set [4] of less than 10%.
In [9], `CC(c1ccccc1)c1c(O)c2c(oc1=O)CCCCCC2` (configuration not stated) yielded an inhibition of 10%.
In data set [2], `O=c1c2c(oc(O)c1C(c1ccccc1)C1CC1)CCCCCCCC2` (configuration not stated) yielded an inhibition of 23%.

The values are drawn from ChEMBL document CHEMBL1128378, “Use of medium-sized cycloalkyl rings to enhance secondary binding: discovery of a new class of human immunodeficiency virus (HIV) protease inhibitors” (J Med Chem, 1995).
